Test results taken from patent US20180050033A1, “ANTIFUNGAL TREATMENT OF RHEUMATOID ARTHRITIS” (Gerbe Labs Inc., priority 2016, published 2018).
In brackets after ≈: the same amount, converted by molar mass.

What was measured:
Type in all cases: cell-based
[1] = tested on: Candida albicans ATCC 90028 spores; assay: Checkerboard synergy assay; conditions: ATCC90028, FIG. 6 synergy data, agent alone
Experimental: (§1) This study evaluated the synergistic activity of 2 antifungal agents (Itraconazole and Ketoconazole) with an antibiotic (Vancomycin or Tobramycin or Amikacin) against the spores of 2 fungi; Aspergillus fumigatus MYA3626 and Candida albicans ATCC 90028; individually as well as in co-cultivation (Aspergillus fumigatus+Candida albicans). Synergy testing was carried out as per checkerboard assay by Victor Lorian methodology. See, for example, Lorian, V. Antibiotics in Laboratory Medicine. Edition 5: (2005).
(§2) In vitro activity of the test articles were tested in combination by the Checkerboard assay. See, for example, Lorian, V. Antibiotics in Laboratory Medicine. Edition 5: (2005). The assay was carried out in duplicates. The starting concentrations for the test articles was determined as per the MIC data. Two-fold serial dilutions of 8×MIC for the antifungal agents; Itraconazole and Ketoconazole was performed separately. When Itraconazole and Ketoconazole were combined in a microtiter plate, the concentration of both agents was 2×MIC. 1× final concentration of the antifungal agents were obtained when they were combined with the 10^6 CFU/mL fungal spore inoculum in the microtiter plate. The plates were incubated at 35° C. for 3-5 days. The assay plates were visually inspected to confirm the MIC endpoint and used to calculate the Fractional Inhibitory Concentration (FIC) Index to determine any synergistic interaction.
(§3) The FIC Index was calculated as follows:
(§4) FIC Index=FICA+FICB • where, A and B are the MIC of the test article and an antifungal in combination (in a single well). MICA and MICB are the MICs of each antifungal individually.
(§5) FIC Index value was used to categorize the interaction, as follows:
(§6) To determine if Itraconazole and Ketoconazole combination had synergistic antifungal activity, a synergy assay was carried out with Itraconazole (1 μg/mL, 0.5 μg/mL, 0.25 μg/mL, 0.125 μg/mL, 0.0625 μg/mL, 0.0312 μg/mL, and 0.0156 μg/mL) and Ketoconazole (8 μg/mL, 4 μg/mL, 2 μg/mL, 1 μg/mL, 0.5 μg/mL, 0.25 μg/mL, 0.125 μg/mL, 0.0625 μg/mL, 0.0312 μg/mL, 0.0156 μg/mL and 0.0078 μg/mL) against Aspergillus fumigatus alone, Candida albicans alone, and against Aspergillus fumigatus+Candida albicans co-culture.

[2] = tested on: Aspergillus fumigatus MYA3626 spores; assay: Checkerboard synergy assay; conditions: MYA3626SPORES, FIG. 5 synergy data, agent alone
Experimental: as §1, §2, §3, §4, §5, §6

[3] = tested on: co-culture of Aspergillus fumigatus + Candida albicans spores (1:1); assay: Checkerboard synergy assay, co-culture; conditions: FIG. 7 synergy data, agent alone
Experimental: as §1
as §2, with “The assay plates were visually inspected to confirm the MIC endpoint and used to calculate the Fractional Inhibitory Concentration (FIC) Index to determine any synergistic interaction.” left out
The FIC Index was calculated as follows: […]

[4] = tested on: Candida albicans ATCC 90028 spores; assay: Broth microdilution MIC assay; conditions: Candida albicans alone
Experimental: (§7) Broth Microdilution Minimal Inhibitory Concentration (MIC) assays were performed to obtain the MIC values for Itraconazole and Ketoconazole with an antibiotic (Vancomycin or Tobramycin or Amikacin) against the two fungal strains.
(§8) Fungal strains: Aspergillus fumigatus MYA3626 and Candida albicans ATCC 90028 strains were obtained from the American Type Culture Collection (Manassas, Va.). The strains were maintained as a frozen glycerol stocks at −80° C. The fungal strains were prepared by thawing a glycerol stock, streaking and growing onto Sabouraud's Dextrose Agar (SDA) plates, overnight at 35±2° C. in aerobic conditions and used for the assay.
(§9) Antifungal agents: Itraconazole (Cat #16657, Lot #087K1322), Ketoconazole (Cat # K1003, Lot # SLBR1290V). Stocks were prepared in appropriate solvents following the CLSI guidelines. See, for example, Reference method for broth dilution antifungal susceptibility testing of filamentous fungi, approved standard, 2nd ed. CLSI document M38-A2, vol. 28. CLSI, Wayne, Pa. (2008).
(§10) The completely synthetic medium RPMI-1640 (with glutamine, without bicarbonate, and with phenol red as a pH indicator) was buffered with 0.165 mol/L MOPS (3-[N-morpholino] propanesulfonic acid) buffer was used as the growth medium for the fungal strains. Overnight cultures of the fungal strains were grown on Difco™ Sabouraud's Dextrose Agar (SDA) plates at 35° C. To induce conidium and sporangiospore formation, the culture plates were transferred to incubator and grown for 5-7 days 30° C. or until good sporulation was obtained. Approximately, 10 mL of 0.85% saline containing 0.01% of Tween 80 was used to poured on to the agar plate containing conidia or sporangiospores and hyphal fragments. The suspension containing conidia or sporangiospores and hyphal fragments was aspirated and transferred to a sterile tube. This mixture was filtered to separate the spores from the vegetative cells of the fungi. The supernatant containing only fungal spores was used for all the assays. Fungal spore inoculum was prepared in RPMI-1640 (with glutamine, without bicarbonate, and with phenol red as a pH indicator) was buffered with 0.165 mol/L MOPS (3-[N-morpholino] propanesulfonic acid) buffer to a final density of 10^6 CFU/mL using a hemocytometer.
(§11) Each MIC assay included 11 2-fold serial dilutions of the antifungal agents. Test concentrations for the test articles were tested at the following concentrations: 64 μg/mL, 32 μg/mL, 16 μg/mL, 8 μg/mL, 4 μg/mL, 2 μg/mL, 1 μg/mL, 0.5 μg/mL, 0.25 μg/mL, 0.125 μg/mL, and 0.0625 μg/mL. Broth microdilution assays were performed according to the procedures detailed in CLSI document M38-A2 (CLSI, 2008). Briefly, 2× stock solutions of test articles were prepared at 128 μg/mL. A two-fold serial dilution of the stock solution were performed. Diluted stock solutions of the fungal spores were adjusted (to be equivalent to 10^6 CFU/mL). 1× final concentration of the antifungals was obtained when they were combined with the fungal spore broth in the microtiter plate. Plates were incubated for 3-5 days at 35±2° C. in an ambient air incubator. MIC values recorded are the minimum concentration of the test articles that inhibits growth as observed by unaided eye. The MIC values was expressed in μg/mL. The assay was carried out in duplicates.

[5] = tested on: Aspergillus fumigatus MYA3626 spores; assay: Broth microdilution MIC assay; conditions: MYA3626SPORES
Experimental: as §7, §8, §9, §10, §11

[6] = tested on: co-culture of Aspergillus fumigatus + Candida albicans spores (1:1); assay: Broth microdilution MIC assay, co-culture
Experimental: as §7, §8, §9, §10, §11

Candida albicans = assay: Culture and sensitivity, Patient 7; conditions: culture from Patient 7
From the text: (§12) The patient underwent the standard workup for CRS, sleep disorder, and nasal obstruction, plus our diagnostic skin test and sinus CT scan.

[7] = tested on: S. aureus, a gram negative bacteria; assay: Culture and sensitivity, Patient 7; conditions: culture from Patient 7
From the text: as §12

[8] = ATCC90028, Table 3, 10^6 CFU/mL spores, 3-5 days at 35° C., read-out: MIC
[9] = Table 3, Aspergillus fumigatus alone, 10^6 CFU/mL spores, 3-5 days at 35° C.
[10] = Table 4, repeated MIC study, Aspergillus fumigatus alone
[11] = Aspergillus fumigatus, Table 3, read-out: MIC
[12] = Aspergillus fumigatus, Table 4, repeated MIC study, agent alone, read-out: MIC

Row | MIC [1] | MIC [2] | MIC [3] | MIC [4, 8] | MIC ([4]; Table 4, repeated MIC study) | MIC [5, 9] | MIC [5, 10] | MIC [6, 11] | MIC [6, 12] | MIC ([6]; Table 4, repeated MIC study, agent alone, listed as Itraconazone) | SMILES | Sensitivity of cultured Candida albicans (Candida albicans) | Sensitivity of cultured bacteria [7]
1 | > 0.0312 µg/mL | > 0.5 µg/mL | > 0.5 µg/mL | 0.06 µg/mL (≈ 0.085 µM) | 0.06 µg/mL (≈ 0.085 µM) | 0.5 µg/mL (≈ 0.709 µM) | 1 µg/mL (≈ 1.42 µM) | 0.5 µg/mL (≈ 0.709 µM) | 1 µg/mL (≈ 1.42 µM) | 1 µg/mL (≈ 1.42 µM) | CCC(C)n1ncn(-c2ccc(N3CCN(c4ccc(OCC5COC(Cn6cncn6)(c6ccc(Cl)cc6Cl)O5)cc4)CC3)cc2)c1=O (stereo not drawn) [Itraconazole] |  | 
2 | > 0.0312 µg/mL | > 4 µg/mL | > 4 µg/mL | 0.06 µg/mL (≈ 0.113 µM) | 0.06 µg/mL (≈ 0.113 µM) | 16 µg/mL (≈ 30.1 µM) | 8 µg/mL (≈ 15.1 µM) | 16 µg/mL (≈ 30.1 µM) | 8 µg/mL (≈ 15.1 µM) |  | CC(=O)N1CCN(c2ccc(OCC3COC(Cn4ccnc4)(c4ccc(Cl)cc4Cl)O3)cc2)CC1 (stereo not drawn) [Ketoconazole] | sensitive | 
3 |  |  |  |  |  |  |  |  |  |  | NC[C@H]1O[C@H](O[C@H]2[C@H](O)[C@@H](O[C@H]3O[C@H](CO)[C@@H](O)[C@H](N)[C@H]3O)[C@H](N)C[C@@H]2N)[C@H](N)C[C@@H]1O [tobramycin] |  | sensitive
